Legend:
[1] = target: T1, Bromodomain-containing protein 4 (Homo sapiens, UniProt O60885); experiment: Binding affinity to human BRD4 BD1 expressed in Escherichia coli BL21 (DE3) assessed as dissociation constant by ITC analysis
[2] = target: T1, Bromodomain-containing protein 4; experiment: Binding affinity to human BRD4 BD2 expressed in Escherichia coli BL21 (DE3) assessed as dissociation constant by ITC analysis
[3] = Half life in rat at 5 mg/kg, po; conditions: in vivo
[4] = target: T1, Bromodomain-containing protein 4; experiment: Binding affinity to human BRD4 BD2 expressed in Escherichia coli BL21 (DE3) assessed as dissociation constant by bromodomain analysis
[5] = target: T1, Bromodomain-containing protein 4; experiment: Binding affinity to human BRD4 BD1 expressed in Escherichia coli BL21 (DE3) assessed as dissociation constant by bromodomain analysis
in vivo [6] = conditions: rat, po, 5 mg/kg
Description: AUC (0 to t) in rat at 5 mg/kg, po

in vivo [7] = conditions: rat, po, 5 mg/kg; remark: listed apart in the source
Description: Cmax in rat at 5 mg/kg, po

in vivo [8] = conditions: rat, po, 5 mg/kg; remark: listed apart in the source
Description: AUC (0 to infinity) in rat at 5 mg/kg, po

MV4-11 = experiment: Cytotoxicity against human MV4-11 cells assessed as growth inhibition incubated for 72 hrs by WST-1 assay; conditions: MV4-11, 72 h
in vivo [9] = conditions: rat, po, 5 mg/kg; remark: listed apart in the source
Description: Tmax in rat at 5 mg/kg, po

Ty-82 = experiment: Cytotoxicity against human Ty-82 cells assessed as growth inhibition incubated for 72 hrs by WST-1 assay; conditions: TY82, 72 h
KU-19-19 = experiment: Antiproliferative activity against human KU-19-19 cells assessed as growth inhibition incubated for 72 hrs by WST-1 assay; conditions: KU-19-19, 72 h
K562 = experiment: Antiproliferative activity against human K562 cells assessed as growth inhibition incubated for 72 hrs by WST-1 assay; conditions: K562, 72 h
MOLT-4 = experiment: Antiproliferative activity against human MOLT-4 cells assessed as growth inhibition incubated for 72 hrs by WST-1 assay; conditions: MOLT-4, 72 h
U2932 = experiment: Antiproliferative activity against human U2932 cells assessed as growth inhibition incubated for 72 hrs by WST-1 assay; conditions: U2932, 72 h
NCI-H1666 = experiment: Antiproliferative activity against human NCI-H1666 cells assessed as growth inhibition incubated for 72 hrs by WST-1 assay; conditions: NCI-H1666, 72 h
[10] = Antiproliferative activity against human SNU-2535 cells assessed as growth inhibition incubated for 72 hrs by WST-1 assay; conditions: SNU-2535, 72 h
THP-1 = experiment: Antiproliferative activity against human THP-1 cells assessed as growth inhibition incubated for 72 hrs by WST-1 assay; conditions: THP-1, 72 h
NCI-H1975 = experiment: Antiproliferative activity against human NCI-H1975 cells assessed as growth inhibition incubated for 72 hrs by WST-1 assay; conditions: NCI-H1975, 72 h
Pfeiffer = experiment: Antiproliferative activity against human Pfeiffer cells assessed as growth inhibition incubated for 72 hrs by WST-1 assay
Raji = experiment: Antiproliferative activity against human Raji cells assessed as growth inhibition incubated for 72 hrs by WST-1 assay
Daudi = experiment: Antiproliferative activity against human Daudi cells assessed as growth inhibition incubated for 72 hrs by WST-1 assay
LS-1034 = experiment: Antiproliferative activity against human LS1034 cells assessed as growth inhibition incubated for 72 hrs by WST-1 assay; conditions: LS-1034, 72 h
SUD4 = experiment: Antiproliferative activity against human SU-DHL-4 cells assessed as growth inhibition incubated for 72 hrs by WST-1 assay; conditions: SU-DHL-4, 72 h
BJAB = experiment: Antiproliferative activity against human BJAB cells assessed as growth inhibition incubated for 72 hrs by WST-1 assay
T-24 = experiment: Antiproliferative activity against human T24 cells assessed as growth inhibition incubated for 72 hrs by WST-1 assay; conditions: T-24, 72 h

SMILES | Kd [4] | Kd [5] | GI50 (MV4-11) | GI50 (Ty-82) | further results
COc1ccc2c(c1)nc(NCCCCNC(=O)CC(C)C)c1nnc(C)n12 |  |  |  |  | Kd [1]: 6.7 nM; Kd [2]: 293 nM
Cc1sc2c(c1C)C(c1ccc(Cl)cc1)=N[C@@H](CC(=O)Nc1ccc(O)cc1)c1nnc(C)n1-2 [BIRABRESIB] |  |  | 30 nM | 67 nM | GI50 (KU-19-19): > 10000 nM; GI50 (K562): > 10000 nM; GI50 (MOLT-4): > 10000 nM; GI50 (U2932): > 10000 nM; GI50 (NCI-H1666): > 10000 nM; GI50 [10]: > 10000 nM; GI50 (THP-1): 40 nM; GI50 (NCI-H1975): > 10000 nM; GI50 (Pfeiffer): 210 nM; GI50 (Raji): > 10000 nM; GI50 (Daudi): 4000 nM; GI50 (LS-1034): > 10000 nM; GI50 (SUD4): 2800 nM; GI50 (BJAB): 130 nM; GI50 (T-24): 7900 nM
Cc1nnc2c(NCCCCCCNC(=O)OC(C)(C)C)nc3ccccc3n12 | > 5000 nM | > 5000 nM |  | > 10000 nM | 
COc1ccc2c(c1)nc(OCCCCNC(=O)CC(C)C)c1nnc(C)n12 | > 5000 nM | > 5000 nM | > 10000 nM | > 10000 nM | 

Now from value to molecule, other results behind:

Kd [4] | Kd [5] | SMILES | GI50 (MV4-11) | GI50 (Ty-82) | further results
190 nM | 40 nM | Cc1nnc2c(NCCCCNC(=O)OC(C)(C)C)nc3ccccc3n12 | 980 nM | 1000 nM | half-life [3]: 3.52 h; AUC(0-t) (in vivo [6]): 574 ng·h/mL; Cmax (in vivo [7]): 180 ng/mL; AUC(0-inf) (in vivo [8]): 851 ng·h/mL; Tmax (in vivo [9]): 0.667 h
220 nM | 36 nM | Cc1nnc2c(NCCCCNC(=O)OC(C)(C)C)nc3cc(C(=O)O)ccc3n12 |  | 650 nM | 
110 nM | 32 nM | Cc1nnc2c(NCCCCNC(=O)c3ccccc3Cl)nc3ccccc3n12 |  | 9600 nM | 
180 nM | 29 nM | Cc1nnc2c(NCCCCNC(=O)c3ccccc3)nc3ccccc3n12 | 790 nM | 950 nM | 
